Measured values reported in patent publication US11464750B2, “Anticancer agent and use thereof” (priority 2017, dated 2022).

How the values were obtained:
Assay type in all cases: cell-based, human
BALL-1 cells = experiment: MTT assay, BALL-1 cells; settings: 0.01, 0.05, 0.1, 0.5, and 1 μM, 48 hours
Protocol: BALL-1 cells of a cell line derived from […], TKG0210 cells of a human myeloid leukemia cell line, and TKG0377 cells of a human T cell acute leukemia cell line were seeded in 96-well plates at 2.5×10^4 cells/well/100 μL, and cultured for 48 hours in the presence of 3EZ,20Ac-ingenol at final concentrations of 0 (control), 0.5, 1, 5, and 10 μM. Subsequently, cell proliferation was examined by MTT assay using a Cell Proliferation Kit 1 (Roche Applied Science).
BALL-1 cells were exposed to 3EZ,20Ac-ingenol, 3EE,20Ac-ingenol, 20Ac-ingenol, and ingenol at concentrations of 0.01, 0.05, 0.1, 0.5, and 1 μM for 48 hours. Thereafter, cell proliferation was examined by MTT assay. Cells that were not exposed to the chemical were used as controls. The chemical formulas of 3EZ,20Ac-ingenol, 3EE,20Ac-ingenol, and 20Ac-ingenol are as described above. The chemical formula of ingenol is shown in the following Formula (7).

JeKo-1 cells = experiment: MTT assay, JeKo-1 cells; settings: 48 hours
Protocol: (§1) JeKo-1 cells of a cell line derived from a human mantle cell lymphoma were seeded in a 96-well plate at 1×10^4 cells/well/100 μL. In addition, Panc-1 cells of a cell line derived from a human pancreatic cancer were seeded in a 96-well plate at 3×10^3 cells/well/100 μL.
(§2) Subsequently, 3EZ,20Ac-ingenol at final concentrations of 0 (control), 0.1, 0.5, 1, 5, and 10 μM was added the wells of the respective cells, and culturing was performed for 48 hours. Subsequently, cell proliferation was examined by MTT assay using a Cell Proliferation Kit I (Roche Applied Science).
(§3) First, JeKo-1 cells were seeded in a 96-well plate at 1×10^4 cells/well/100 μL. Subsequently, irinotecan at a final concentration of 0 (control), 0.5, 1, 5, 10, 20, and 30 μM was added to the wells of the cells and culturing was performed for 48 hours. In addition, Panc-1 cells were seeded in a 96-well plate at 3×10^3 cells/well/100 μL. Subsequently, irinotecan at a final concentration of 0 (control), 0.5, 1, 5, 10, 20, 30, and 50 μM was added to the wells of the cells and culturing was performed for 48 hours. Subsequently, cell proliferation was examined by MTT assay using a Cell Proliferation Kit I (Roche Applied Science).

Panc-1 cells = experiment: MTT assay, Panc-1 cells; settings: irinotecan, 48 hours
Protocol: as §1, §2, §3

Row | Compound | inhibition of proliferation of the BALL-1 cells (BALL-1 cells) | proliferation inhibition of JeKo-1 cells (JeKo-1 cells; 1 to 20 μM of irinotecan) | IC50 (JeKo-1 cells; Homo sapiens, JeKo-1, MTT assay, read-out: IC50 with respect to the JeKo-1 cells) [µM] | resistance of Panc-1 cells (Panc-1 cells)
1 | CCCCC/C=C/C=C/C(=O)O[C@H]1C(C)=C[C@]23C(=O)[C@@H](C=C(COC(C)=O)[C@@H](O)[C@]12O)[C@H]1[C@@H](C[C@H]3C)C1(C)C [3EE,20Ac-ingenol] | a significant level of inhibition of proliferation |  |  | 
2 | CC(=O)OCC1=C[C@@H]2C(=O)C3(C=C(C)[C@H](O)[C@@]3(O)[C@@H]1O)[C@H](C)C[C@@H]1[C@H]2C1(C)C [20Ac-ingenol] | inhibition of proliferation of the BALL-1 cells was observed |  |  | 
3 | CC1=C[C@]23C(=O)[C@@H](C=C(CO)[C@@H](O)[C@]2(O)[C@H]1O)[C@H]1[C@@H](C[C@H]3C)C1(C)C [ingenol, reference compound] | little effect on proliferation |  |  | 
4 | CCc1c2c(nc3ccc(OC(=O)N4CCC(N5CCCCC5)CC4)cc13)-c1cc3c(c(=O)n1C2)COC(=O)[C@]3(O)CC [irinotecan, reference compound] |  | grown cells were almost eliminated | 5 | showed resistance
